Data from patent publication US20110105554A1, “MEANS FOR TREATING MYOSIN-RELATED DISEASES” (KINARIS BIOMEDICALS GMBH, priority 2007, published 2011).
“Also recorded” adds a separate entry of the source.

What was measured:
[1] = target: T1, Dictyostelium myosin-1E (Dictyostelium discoideum, UniProt Q03479); test: Basal ATPase activity, Dictyostelium myosin-1E; type: biochemical; details: read-out: concentration required for half-maximal inhibition of basal ATPase activity
T1 construct: comprising amino acids 1-698, 1-765, and 1-839 respectively; made in house
Description: (§1) FIG. 18: KIN-68-inhibition of the basal ATPase activity of Dictyostelium myosin-1E and myosin-5b.

[2] = target: T2, Dictyostelium myosin-5b (Dictyostelium discoideum, UniProt P54697); test: Basal ATPase activity, Dictyostelium myosin-5b; type: biochemical; details: read-out: concentration required for half-maximal inhibition of basal ATPase activity
T2 construct: comprising amino acids 1-698, 1-765, and 1-839 respectively; made in house
Description: as §1

[3] = test system: myosin-1 isoforms; test: Selectivity for myosin isoforms (Example 3), myosin-1; type: biochemical
Description: In this context, preferred selectivity means a more than 20-fold smaller IC50 value compared to fast skeletal muscle myosin-2 and other references myosins.

[4] = target: T3, Dictyostelium myosin-2 (Dictyostelium discoideum, UniProt P08799, C312Y/S249N); test: Actin-activated ATPase activity (NADH-coupled assay), Dictyostelium myosin-2; type: biochemical; details: 30 μM actin; read-out: IC50, ATPase activity in the presence of actin
T3 construct: comprising amino acids 1-698, 1-765, and 1-839 respectively; made in house
Protocol: Based on the structure of the myosin-2 motor domain with bound PBP, we performed molecular modeling studies to elucidate the specificity of PBP-binding to myosins from different classes. […] To test the predictions from the modeling studies, we determined actin-activated ATPase activities in the presence of 0 to 150 μM PBP with rabbit skeletal myosin-2 heavy meromyosin (HMM), myosin-5a isolated from chicken brain, and recombinant Dictyostelium myosin class-1, 2 and 5 motor-domain constructs (FIG. 9a). […] The concentrations of PBP required for half-maximal inhibition of the different myosin motors was calculated from fitting the data to hyperbolae. […] To determine the extend to which PBP impairs the coupling between the actin- and nucleotide-binding sites of myosin, we measured the ATP turn-over rates of Dictyostelium myosin-2 and myosin-5b motor domain constructs over the range from 0 to 50 μM F-actin in the absence and presence of 25 μM PBP.
Values for the rate of maximum ATP turnover (kcat), the concentration of F-actin at which half-maximal activation is achieved (Kapp), and the apparent second order rate constant for actin binding (kcat/Kapp) were estimated from a fit of the data to a hyperbolic function. kcat/Kapp is a direct measure of the coupling efficiency between actin and nucleotide binding and can be determined from the initial slope at F-actin concentrations much smaller than Kapp. […] ATP turn-over rates of Dictyostelium myosin-2 (◯) and Dictyostelium myosin-5b (▪) at increasing F-actin concentrations in the absence (filled symbols) and presence (open symbols) of 25 μM pentabromopseudilin (FIG. 9b):
Protein preparation. Rabbit fast skeletal muscle heavy meromyosin (HMM) was prepared as described by Kron and Spudich^9. Motor domain constructs of myosin-1E, myosin-2, and myosin-5b from Dictyostelium discoideum comprising amino acids 1-698, 1-765, and 1-839 respectively, were prepared as described previouslyl^10-12. Myosin-5a heavy meromyosin from chicken brain was provided by Dr. T. Scholz (Hannover Medical School, Germany) and F-actin was prepared as described by Lehrer and Kerwar^13.
Steady-state kinetics. Basal and actin-activated Mg^2+-ATPase activities were measured with the NADH-coupled assay^19 in a buffer containing 25 mM HEPES, 25 mM KCl, and 4 mM MgCl2, 0.5 mM DTT at pH 7.0 in the presence of 1 mM ATP at 25° C. PBP was added to the reaction mixture in the absence of nucleotide and incubated for 20 minutes before the reaction was started by the addition of ATP. NADH oxidation was followed using the change in absorption at 340 nm in a Beckman DU-800 spectrophotometer.

[5] = target: T4, Dictyostelium myosin-2 (Dictyostelium discoideum, UniProt P08799, C312Y/S249N); test: Basal ATPase activity, Dictyostelium myosin-2; type: biochemical
T4 construct: comprising amino acids 1-698, 1-765, and 1-839 respectively; made in house
T4 sequence (P08799 1-765 S249N/C312Y): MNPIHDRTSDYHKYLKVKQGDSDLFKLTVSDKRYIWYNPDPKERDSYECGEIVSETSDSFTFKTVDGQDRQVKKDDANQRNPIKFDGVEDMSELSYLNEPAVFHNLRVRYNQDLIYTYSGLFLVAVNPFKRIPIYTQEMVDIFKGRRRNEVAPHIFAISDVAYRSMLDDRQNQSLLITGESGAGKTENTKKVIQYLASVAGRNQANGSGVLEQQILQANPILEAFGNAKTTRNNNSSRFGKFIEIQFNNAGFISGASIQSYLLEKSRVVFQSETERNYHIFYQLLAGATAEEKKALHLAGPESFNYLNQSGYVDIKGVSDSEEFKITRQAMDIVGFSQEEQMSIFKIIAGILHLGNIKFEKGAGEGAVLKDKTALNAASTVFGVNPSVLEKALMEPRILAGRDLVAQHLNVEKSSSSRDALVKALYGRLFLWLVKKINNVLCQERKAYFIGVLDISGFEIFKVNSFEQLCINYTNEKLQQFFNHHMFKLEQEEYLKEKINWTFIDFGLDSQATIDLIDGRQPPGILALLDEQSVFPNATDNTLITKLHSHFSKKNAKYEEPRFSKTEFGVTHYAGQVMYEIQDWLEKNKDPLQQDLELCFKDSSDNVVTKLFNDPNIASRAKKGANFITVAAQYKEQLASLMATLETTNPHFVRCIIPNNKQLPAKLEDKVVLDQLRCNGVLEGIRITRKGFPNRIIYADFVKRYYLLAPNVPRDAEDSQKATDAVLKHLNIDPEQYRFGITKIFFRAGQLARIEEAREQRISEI
Protocol: (a) Concentrations of […] in the range from 1 to 50 μM activate the basal ATPase activity of Dictyostelium myosin-2 with an apparent half maximum activation constant AC50 of 18 μM. At concentrations of KIN-74>50 μM the basal ATPase activity of Dictyostelium myosin-2 is inhibited with IC50=90 μM.
Compounds KIN-74, KIN-77 are activators of myosin-2 function. KIN-74 activates the ATPase activity of Dictyostelium myosin-2 in the absence of actin. ATPase activity is uncoupled from motor activity in this situation. The apparent half-maximum activation constant AC50 corresponds to 18 μM. Uncouplers have potential applications in inhibiting the overcontraction and overextension of cardiac muscles without being accompanied with a cardioinhibitory action. Therefore, compounds derived from KIN-74 have potential applications in the treatment of acute myocardial infarction helping to prevent the necrosis of cardiac muscles.

[6] = test system: Plasmodium sporozoites; test: Plasmodium sporozoite motility (in vitro imaging); type: cell-based
Description: FIG. 20: (a) Plasmodium sporozoites adopt motility states, shown in the photos from the left to the right, attached, waving, clockwise (CW), and counterclockwise (CCW). In the absence of inhibitors sporozoites preferably move CW and CCW at 0.97 μm/s and 1.13 μm/s.
Plasmodium sporozoites are moving at very low speed in the salivary glands of infected mosquitoes but are moving at high speed (2 μm/s) upon transmission into the vertebrate host. […] We followed single parasites using in vitro imaging approaches in combination with our bioactive compounds and discovered some intriguing features of sporozoite motility. Under normal conditions sporozoites move in circles, either counterclockwise or clockwise. Two other states of attachment and waving are less populated.

[7] = test system: Plasmodium merozoites; test: In vitro growth assay, blood stages of malaria; type: cell-based; details: 25 μM
[8] = Development toxicity testing on medaka embryos; details: medaka, in vivo
Protocol: (§2) (a) KIN-43 in concentrations between 0.5 μM and 100 μM were incubated for 48 h with 20 medaka embryos per concentration. […] (b) Light microscopy image of embryo after 48 h in the absence of KIN-43.
(§3) We are using a library of common organic molecules and functional groups and are applying an empirical force field description of the nonbonding interactions between a ligand and the binding site in order to build up de novo compounds with spatial and electrostatic properties complementary to the allosteric binding site.

[9] = test system: medaka embryos; test: Development toxicity testing on medaka embryos
Protocol: as §2, §3

[10] = in vitro; details: human
Protocol: (§4) Cytotoxicity may be assayed by determining the cellular uptake of neutral red. Only living cells are capable of neutral red uptake via an active transport mechanism. For an exemplary workflow of a cytotoxicity assay, see FIG. 16.
(§5) FIG. 16: Cytotoxicity assay.
(§6) FIG. 22: Cytotoxic testing of KIN-compounds by neutral red uptake assays. (a) human hepatocyte carcinoma cells (Hep G2) were exposed to KIN-43 for 4 h in the in presence of 1% FBS.
as §3

[11] = test system: human hepatocyte carcinoma cells (Hep G2); test: in vitro
Protocol: as §4, §5, §6, §3

T2 sequence (P54697 1-839): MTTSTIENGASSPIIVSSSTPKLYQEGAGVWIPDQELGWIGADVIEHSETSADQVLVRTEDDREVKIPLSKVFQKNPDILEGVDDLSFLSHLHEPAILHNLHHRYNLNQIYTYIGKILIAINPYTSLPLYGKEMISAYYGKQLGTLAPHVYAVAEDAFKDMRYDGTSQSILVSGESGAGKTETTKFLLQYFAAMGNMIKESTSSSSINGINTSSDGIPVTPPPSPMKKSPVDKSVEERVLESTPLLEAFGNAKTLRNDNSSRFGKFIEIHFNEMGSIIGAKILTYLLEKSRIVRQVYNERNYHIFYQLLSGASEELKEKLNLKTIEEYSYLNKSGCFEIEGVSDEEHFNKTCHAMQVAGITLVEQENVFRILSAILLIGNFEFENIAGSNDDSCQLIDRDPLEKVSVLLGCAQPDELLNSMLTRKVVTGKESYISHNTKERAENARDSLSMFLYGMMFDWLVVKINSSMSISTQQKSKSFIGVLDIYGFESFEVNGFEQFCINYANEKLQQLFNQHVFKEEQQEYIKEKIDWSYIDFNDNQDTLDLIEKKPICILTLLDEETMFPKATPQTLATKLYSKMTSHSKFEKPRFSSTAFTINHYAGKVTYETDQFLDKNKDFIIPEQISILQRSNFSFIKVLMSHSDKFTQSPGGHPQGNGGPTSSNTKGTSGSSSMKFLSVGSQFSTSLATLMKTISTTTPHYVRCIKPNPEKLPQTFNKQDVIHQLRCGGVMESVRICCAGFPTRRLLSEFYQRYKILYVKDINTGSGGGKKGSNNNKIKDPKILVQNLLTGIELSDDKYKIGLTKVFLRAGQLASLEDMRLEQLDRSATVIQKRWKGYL
T1 sequence (Q03479 1-698): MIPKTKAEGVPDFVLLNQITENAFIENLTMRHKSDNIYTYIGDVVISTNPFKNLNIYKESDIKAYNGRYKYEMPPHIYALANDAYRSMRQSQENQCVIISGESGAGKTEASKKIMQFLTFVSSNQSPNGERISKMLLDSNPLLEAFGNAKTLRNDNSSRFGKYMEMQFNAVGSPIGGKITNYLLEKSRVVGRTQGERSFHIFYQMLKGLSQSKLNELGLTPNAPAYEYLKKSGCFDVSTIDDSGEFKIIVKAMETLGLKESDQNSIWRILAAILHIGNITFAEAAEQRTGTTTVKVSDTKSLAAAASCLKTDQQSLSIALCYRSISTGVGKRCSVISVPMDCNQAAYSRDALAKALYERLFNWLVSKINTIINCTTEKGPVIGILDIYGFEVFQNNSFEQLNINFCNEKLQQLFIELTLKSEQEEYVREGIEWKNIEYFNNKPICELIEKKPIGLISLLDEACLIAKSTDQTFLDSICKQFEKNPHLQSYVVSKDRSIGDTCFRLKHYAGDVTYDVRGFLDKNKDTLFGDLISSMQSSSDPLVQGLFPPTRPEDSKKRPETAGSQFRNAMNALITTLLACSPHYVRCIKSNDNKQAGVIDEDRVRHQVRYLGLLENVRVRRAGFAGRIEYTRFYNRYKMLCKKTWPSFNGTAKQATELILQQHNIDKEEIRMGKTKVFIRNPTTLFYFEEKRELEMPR

Oc1c(Cl)cc(Cl)cc1-c1[nH]c(Cl)c(Cl)c1Cl [KIN-68, pentachloropseudilin]
IC50 [1]: 55.8 µM | IC50 [2]: 105 µM | preferred selectivity: fold smaller IC50 compared to fast skeletal muscle myosin-2 and other reference myosins [3]: more than 20 fold

Oc1c(F)cc(F)cc1-c1[nH]c(Br)c(Br)c1Br [KIN-74, 2,3,4-tribromo-5 (1′ hydroxy, 2′,4′-difluorophenyl)pyrrole]
IC50 [4]: 88.8 µM | AC50 ([5]; absence of actin, 1 to 50 μM, read-out: apparent half maximum activation constant AC50, basal ATPase activity): 18 µM | IC50 ([5]; at concentrations >50 μM): 90 µM

Oc1cc(F)c(F)c2c1[nH]c1ccc(F)cc12 [KIN-93]
general cytotoxicity for erythrocytes or for Plasmodium sporozoites [6]: No general cytotoxicity | gliding velocity compared with control parasites ([6]; 10 μM): only half as fast | motility states of the sporozoite population ([6]; 10 μM): switched the population to attached and waving states; also recorded: strongly reduced | velocity of clockwise (CW) motility ([6]; 0.97 μm/s without inhibitor): 0.58 μm/s | velocity of counterclockwise (CCW) motility ([6]; 1.13 μm/s without inhibitor): 0.59 μm/s | effect on the blood stages of malaria [7]: reducing the number of Plasmodium merozoites | LC50 at 48 h [8]: > 50 µM | lethal effect on medaka embryos ([9]; below 50.0 μM): no lethal effect | embryonic development ([9]; in vivo): not impaired | CC50 at 4 h [10]: > 50 µM | neutral red uptake experiments, defects [11]: do not reveal any defects
